Measured values reported in patent US6531493B1, “3-cyclopropylmethoxy-4-difluoromethoxy-N-(3,5-dichloropyrid-4-yl)benzamide in the treatment of multiple sclerosis” (Altana Pharma AG, priority 1999, dated 2003).

Test system: Experimental autoimmune encephalomyelitis (EAE) in female SJL mice
Assay: Experimental autoimmune encephalomyelitis (EAE) induced with PLP139-151, daily clinical scoring
Assay type: in vivo
Details: for Number of sick animals: 2 × 5 mg/kg p.o., 2× daily up to day 21, n=10
[1] = oral administration, compared with untreated controls

With O=C(Nc1c(Cl)cncc1Cl)c1ccc(OC(F)F)c(OCC2CC2)c1 [substance A, 3-cyclopropylmethoxy-4-difluoromethoxy-N-(3,5-dichloropyrid-4-yl)benzamide] the “Number of sick animals” value (day 2 after EAE induction) was 0, the “Number of sick animals” value (day 4 after EAE induction) was 0 and the “Number of sick animals” value (day 6 after EAE induction) was 0. For the same compound, the “Number of sick animals” value (day 8 after EAE induction) was 0, the “Number of sick animals” value (day 10 after EAE induction) was 0 and the “Number of sick animals” value (day 12 after EAE induction) was 0. The “Number of sick animals” value (day 14 after EAE induction) was 1, the “Number of sick animals” value (day 16 after EAE induction) was 3 and the “Number of sick animals” value (day 18 after EAE induction) was 3. For the same compound, the “Number of sick animals” value (day 20 after EAE induction) was 3, the “Number of sick animals” value (day 22 after EAE induction) was 3 and the “Number of sick animals” value (day 24 after EAE induction) was 4. For the same compound, the “Number of sick animals” value (day 26 after EAE induction) was 3, the “Number of experimental animals with no MS-analogous symptomatology at all” value (of the 10 treated animals, monitoring period up to the 26th day after EAE induction) was 6 and the “Effect on onset of the MS-analogous symptomatology” value [1] was “delay in the onset of the MS-analogous symptomatology”. For the same compound, the “Effect on the number of animals which suffer from the experimental encephalitis” value [1] was “marked decrease in the number of animals”.
